Measured values reported in the supplement of paper PMC10307832.

Key:
Assay in all cases: relative viability (nuclei count vs DMSO), 5 days (fraction); higher = more cells survive
[1] = compound: CCN1CCC(CC1)N2C=C(N=N2)CNC3=CC4=C(C(=CN=C4C(=C3)Cl)C#N)NC5=CC(=C(C=C5)F)Cl [KIN001-266] + O=C(c1cc(Cc2n[nH]c(=O)c3ccccc23)ccc1F)N1CCN(C(=O)C2CC2)CC1 [Olaparib] (partner 8 µM)
Procedure, shortened: (§1)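 The day after seeding in 1536-well plates, lung cancer cell lines were treated by pin tool with a single drug, or with a fixed anchor-drug dose together with five library-drug doses (not always all listed) in √10 steps. After 5 days, a combined fix-and-stain solution (final 0.05% Triton X-100, 1% formaldehyde, 1 ug/ml Hoechst) was added. Nuclei counted on 4× images gave relative viability as treated counts over vehicle counts, reported as the median of duplicate plates.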

[2] = compound: CCN1CCC(CC1)N2C=C(N=N2)CNC3=CC4=C(C(=CN=C4C(=C3)Cl)C#N)NC5=CC(=C(C=C5)F)Cl [KIN001-266] + Nc1ncn([C@H]2C[C@H](O)[C@@H](CO)O2)c(=O)n1 [Decitabine] (partner 2 µM)
Procedure, shortened: as §1

[3] = compound: CCN1CCC(CC1)N2C=C(N=N2)CNC3=CC4=C(C(=CN=C4C(=C3)Cl)C#N)NC5=CC(=C(C=C5)F)Cl [KIN001-266] + NC(=O)Nc1cc(-c2cccc(F)c2)sc1C(=O)N[C@H]1CCCNC1 [AZD7762] (partner 0.2 µM)
Procedure, shortened: as §1

[4] = compound: CCN1CCC(CC1)N2C=C(N=N2)CNC3=CC4=C(C(=CN=C4C(=C3)Cl)C#N)NC5=CC(=C(C=C5)F)Cl [KIN001-266] + CS(=O)(=O)CCNCc1ccc(-c2ccc3ncnc(Nc4ccc(OCc5cccc(F)c5)c(Cl)c4)c3c2)o1 [Lapatinib] (partner 2 µM)
Procedure, shortened: as §1

| Cell Line | relative viability ([1]; first compound 0.08 µM) | relative viability ([1]; first compound 0.253 µM) | relative viability ([1]; first compound 0.8 µM) | relative viability ([1]; first compound 2.53 µM) | relative viability ([1]; first compound 8 µM) | relative viability ([2]; first compound 0.08 µM) | relative viability ([2]; first compound 0.253 µM) | relative viability ([2]; first compound 0.8 µM) | relative viability ([2]; first compound 2.53 µM) | relative viability ([2]; first compound 8 µM) | relative viability ([3]; first compound 0.08 µM) | relative viability ([3]; first compound 0.253 µM) | relative viability ([3]; first compound 0.8 µM) | relative viability ([3]; first compound 2.53 µM) | relative viability ([3]; first compound 8 µM) | relative viability ([4]; first compound 0.08 µM) | relative viability ([4]; first compound 0.253 µM) | relative viability ([4]; first compound 0.8 µM) | relative viability ([4]; first compound 2.53 µM) | relative viability ([4]; first compound 8 µM) |
| --- | --- | --- | --- | --- | --- | --- | --- | --- | --- | --- | --- | --- | --- | --- | --- | --- | --- | --- | --- | --- |
| LC-2-ad | 0.706 | 0.727 | 0.664 | 0.693 | 0.635 | 0.802 | 0.794 | 0.676 | 0.733 | 0.771 | 0.8 | 0.867 | 0.777 | 0.863 | 0.636 | 0.999 | 0.847 | 1.02 | 0.972 | 0.929 |
| LCLC-97TM1 | 0.302 | 0.295 | 0.406 |  | 0.167 | 0.22 | 0.226 | 0.226 |  | 0.168 | 0.339 |  | 0.281 |  | 0.212 | 0.836 | 0.868 | 1.14 | 1.04 | 0.844 |
| LK-2 | 0.879 | 0.689 | 0.672 | 0.557 | 0.574 | 0.384 | 0.298 | 0.309 | 0.318 | 0.41 | 0.505 | 0.292 | 0.19 | 0.143 | 0.219 | 1.06 | 0.836 | 0.884 | 0.834 | 1.05 |
| LOU-NH91 | 0.909 | 0.903 | 0.761 | 0.842 | 0.757 | 0.796 | 0.82 | 0.728 | 0.767 | 0.701 | 0.785 | 0.617 | 0.711 | 0.711 | 0.734 | 0.854 | 0.751 | 0.711 | 0.689 | 0.745 |
| LU99A | 0.271 | 0.283 | 0.2 | 0.213 | 0.164 | 0.976 | 1.01 | 0.9 | 0.613 | 0.607 | 0.367 | 0.384 | 0.299 | 0.257 | 0.272 | 1.16 | 1.07 | 1.03 | 0.834 | 0.803 |
| LXF-289 | 1.01 | 1.02 | 1.03 | 1.01 | 1.03 | 0.379 | 0.365 | 0.369 | 0.34 | 0.414 | 0.996 | 1.04 | 1.09 | 1.09 | 1.19 | 0.901 | 0.898 | 0.862 | 0.865 | 0.96 |
| NCI-H23 | 0.334 | 0.303 | 0.321 | 0.309 | 0.251 | 0.332 | 0.297 | 0.311 | 0.311 | 0.256 | 0.195 | 0.249 | 0.304 | 0.22 | 0.246 | 1.22 | 1.12 | 1 | 0.991 | 0.845 |
| NCI-H322M | 0.802 | 0.737 | 0.764 | 0.72 | 0.698 | 0.733 | 0.745 | 0.74 | 0.648 | 0.672 | 0.63 | 0.64 | 0.612 | 0.451 | 0.544 | 0.575 | 0.604 | 0.601 | 0.57 | 0.489 |
